In experiment [1] the target is Proto-oncogene tyrosine-protein kinase receptor Ret [G810R] (Human, UniProt P07949, G810R). Kind of experiment: HTRF Assay.
In experiment [2] the target is Proto-oncogene tyrosine-protein kinase receptor Ret [V804M] (Human, UniProt P07949, V804M). Kind of experiment: HTRF Assay.
Sequence of Proto-oncogene tyrosine-protein kinase receptor Ret [V804M] (P07949 29-1114 V804M limits assumed): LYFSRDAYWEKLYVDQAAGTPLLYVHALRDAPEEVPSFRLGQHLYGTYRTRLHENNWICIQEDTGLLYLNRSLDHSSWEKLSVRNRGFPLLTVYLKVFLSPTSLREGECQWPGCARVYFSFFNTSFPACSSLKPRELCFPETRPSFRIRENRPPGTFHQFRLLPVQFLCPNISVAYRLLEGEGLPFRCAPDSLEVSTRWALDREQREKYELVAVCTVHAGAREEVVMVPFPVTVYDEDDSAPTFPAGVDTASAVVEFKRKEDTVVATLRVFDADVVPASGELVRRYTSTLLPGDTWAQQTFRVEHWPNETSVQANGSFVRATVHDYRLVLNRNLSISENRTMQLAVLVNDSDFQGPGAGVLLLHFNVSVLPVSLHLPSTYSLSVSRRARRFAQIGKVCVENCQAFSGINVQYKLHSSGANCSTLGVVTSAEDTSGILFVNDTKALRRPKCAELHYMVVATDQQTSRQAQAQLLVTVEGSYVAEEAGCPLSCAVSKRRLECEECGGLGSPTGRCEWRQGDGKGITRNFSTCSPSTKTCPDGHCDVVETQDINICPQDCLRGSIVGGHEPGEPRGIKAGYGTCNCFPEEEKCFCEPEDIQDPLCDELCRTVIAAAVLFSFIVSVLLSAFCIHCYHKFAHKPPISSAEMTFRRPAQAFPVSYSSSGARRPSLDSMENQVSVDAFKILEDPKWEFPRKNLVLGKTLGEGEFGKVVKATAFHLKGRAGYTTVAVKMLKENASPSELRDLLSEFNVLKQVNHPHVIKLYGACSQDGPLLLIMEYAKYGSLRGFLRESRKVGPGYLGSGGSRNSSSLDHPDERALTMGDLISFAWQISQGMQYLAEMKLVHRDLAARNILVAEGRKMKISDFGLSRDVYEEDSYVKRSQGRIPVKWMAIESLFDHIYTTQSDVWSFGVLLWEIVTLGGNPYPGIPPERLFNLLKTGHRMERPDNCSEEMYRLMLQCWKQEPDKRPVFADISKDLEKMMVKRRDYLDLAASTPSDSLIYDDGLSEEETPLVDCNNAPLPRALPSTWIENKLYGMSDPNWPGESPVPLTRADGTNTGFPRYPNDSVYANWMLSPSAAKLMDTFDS

Sequence of Proto-oncogene tyrosine-protein kinase receptor Ret [G810R] (P07949 29-1114 G810R limits assumed): as the sequence (P07949 29-1114 V804M limits assumed) above, with M776V, G782R counted along it

`CCOc1cc(-c2ccc(N3C[C@H](Oc4ccccn4)[C@@H](N)C3)nc2)c2c3cn[nH]c3nn2c1` [US20240174674, Compound 31] came in with a half-maximal inhibitory concentration (IC50) in experiment [1] of 2.6 nM.
Still for that read-out and setting: then `CCOc1cc(-c2ccc(N3CC[C@H](NC(=O)c4ncc(F)cc4Cl)[C@H](O)C3)nc2)c2c3cn[nH]c3nn2c1` [US20240174674, Compound 285], with 5 nM; and `CCOc1cc(-c2ccc(N3C[C@H]4C[C@@H](NC(=O)c5c(F)cccc5Cl)C[C@H]4C3)nc2)c2c3cn[nH]c3nn2c1` [US20240174674, Compound 176], with 12.1 nM.
Take `CCOc1cc(-c2ccc(N3CC[C@H](NC(=O)CC(C)C)[C@H](O)C3)nc2)c2c3cn[nH]c3nn2c1` [US20240174674, Compound 40]: the IC50 in experiment [2] was 0.1 nM; in experiment [1] it was 2.2 nM.

For the origin of these results see BindingDB's records for patent US20240174674 (Applied Pharmaceutical Science, 2024).
